Test results published in US9243281B2, “Neuroprotective chemicals and methods for identifying and using same” (Board of Regents of The University of Texas System, priority 2013, dated 2016).

Assays:
[1] = system: NAD levels in doxorubicin-treated U2OS cells; assay: NAD rebound assay in doxorubicin-treated cells (NAD/NADH Glo); assay type: cell-based; details: 0.5 μM doxorubicin 45 h
Method: FIG. 12. Five-point dose response curves (DRC) of all tested compounds in NAD rebound assay. […] Cellular NAD abundance was determined by NAD/NADH Glo assay kit.
Each chemical variant of P7C3 was co-incubated with doxorubicin on cultured U2OS cells at five doses (0.03 uM, 0.1 uM, 0.3 uM, 1 uM and 3 uM). After 45 hrs incubation, cells were assayed for intracellular levels of NAD (FIG. 12).
Assay was performed following the manufacturer's protocol. NAD/NADH-Glo reagent contains the NAD Cycling Enzyme that converts NAD+ to NADH. In the presence of NADH, the enzyme reductase reduces a proluciferin reductase substrate to form luciferin. Cells were grown in 96- or 384-well plates. 50 μl or 15 μl of NAD/NADH-Glo™ Detection Reagent were added to each well. The resulting luminescence signals were measured by Tecan plate reader or EnVison multimode plate reader (Perkin Elmer).

p70 (NAMPT) = molecular target: T1, p70 (NAMPT) (Homo sapiens, UniProt P43490); assay: binding competition for photo-crosslinking of P7C3-S326 to p70 in H2122 cells; details: 0.3 μM P7C3-S326 plus 5 μM competitor, p70 band intensity, P7C3-S326 alone compared with plus competitor, vehicle 1.0
T1 construct: endogenous in cells; host or cells: H2122 lung cancer cells
T1 sequence (P43490 whole entry): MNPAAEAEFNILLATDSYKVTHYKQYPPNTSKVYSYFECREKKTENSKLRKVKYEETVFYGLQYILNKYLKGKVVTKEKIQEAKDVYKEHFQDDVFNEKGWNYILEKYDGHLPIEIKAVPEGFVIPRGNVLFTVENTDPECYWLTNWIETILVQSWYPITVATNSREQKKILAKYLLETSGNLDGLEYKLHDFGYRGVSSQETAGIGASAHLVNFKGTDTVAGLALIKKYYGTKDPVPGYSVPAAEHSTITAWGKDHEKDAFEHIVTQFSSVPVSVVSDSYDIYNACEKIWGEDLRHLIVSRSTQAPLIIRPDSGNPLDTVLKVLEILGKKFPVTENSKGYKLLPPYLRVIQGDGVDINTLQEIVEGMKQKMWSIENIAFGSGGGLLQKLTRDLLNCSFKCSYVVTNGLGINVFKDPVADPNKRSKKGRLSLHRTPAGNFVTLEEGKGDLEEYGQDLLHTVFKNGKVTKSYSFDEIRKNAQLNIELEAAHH
In short: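 Competition for photo-crosslinking: P7C3 analogs (5 uM) were added alongside the 0.3 μM P7C3-S326 probe to H2122 cells for 2 hours before 15 minutes of 306 nm UV irradiation. In-gel fluorescence of the p70 band after click labeling was normalized to DMSO.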

[2] = system: hippocampal neurogenesis (Dentate Gyrus); assay: in vivo neurogenesis assay (BrdU+ cells in dentate gyrus); parameters: species or system mice; details: for Neurogenesis # BrdU+ Cells (X10E06)/mm3 Dentate Gyrus: living mice, vehicle (DMSO) 7.3
In short: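 New hippocampal cells were tracked by daily BrdU injections and anti-BrdU staining of brain sections. Adult mice (two per pool of ten compounds) got week-long intracerebroventricular infusion by mini-pump, dosed for mid-nanomolar exposure.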

[3] = system: hippocampal neurogenesis (Dentate Gyrus); details: cited from earlier work
[4] = mice and rats, concentrations well above those required to stimulate hippocampal neurogenesis; cited from earlier work
[5] = mice; IP, IV or oral routes; cited from earlier work
aged Fisher rats = details: cited from earlier work
Human NAMPT = molecular target: T2, Human NAMPT (Homo sapiens, UniProt P43490); assay: in vitro NAMPT coupled-enzyme assay (NADH at OD340 nm); assay type: biochemical; details: for NAMPT activation: relative reaction rate normalized by the control reaction run prior to compound addition, vehicle 0.98; for activation of recombinant NAMPT enzyme: coupled assay NAMPT, NMNAT, ADH
T2 construct: made in house; host or cells: E. coli
T2 sequence (P43490 whole entry): as above
Method: FIGS. 7A-7C. […] (FIG. 7A) P7C3-A20 was incubated at indicated concentrations in a reaction coupled with three enzymes; NAMPT, NMNAT, and ADH (Experimental Procedures). NAMPT activity was recorded for the indicated period of time at OD340 nm by measuring NADH appearance, leading to the indicated concentration-time plot. […] (FIG. 7B) Analysis of the activities of thirty P7C3 analogs was performed to assess their effects on NAMPT enzymatic activity. The reaction rate was calculated as the slope of the concentration-time curve. Relative reaction rate was normalized by the control reaction run prior to compound addition. Data represents the mean of experimental duplicates. Scatter graphs were plotted to compare the ability of compounds to activate NAMPT relative to their ability to compete away P7C3-S326 crosslinking (top scatter plot), ability to protect cells from doxorubicin-mediated toxicity (middle scatter plot), or ability to facilitate NAD restoration in doxorubicin-treated cells (bottom scatter plot). […] Data are expressed as mean±SD of duplicate independent assays.
The enzymatic activity of recombinant NAMPT was monitored in a coupled assay wherein nicotinamide conversion to NMN was followed by sequential production of NAD (via the NMNAT enzyme) and NADH (via alcohol dehydrogenase). To minimize variation, a control reaction was run in each assay prior to compound addition.
Briefly, NAMPT first converted nicotinamide to NMN, which was followed by sequential production of NAD via nicotinamide mononucleotide adenylyl-transferase (NMNAT). NAD was then reduced to NADH by alcohol dehydrogenase (Sigma) using alcohol as the substrate. The resulting NADH was monitored by OD340 nm. […] 10 mM stocks of P7C3 analogs in DMSO were further diluted in ethanol prior to applying to the reaction. To minimize variation, a control reaction was run in each assay prior to compound addition.

U2OS cells = assay: doxorubicin toxicity (dox:tox) protection assay, Cell Titer Glo cell survival; assay type: cell-based; details: cultured U2OS cells
From the text: FIGS. 2A-2D. […] (FIG. 2A) Chemical structure of P7C3-S326. […] (FIG. 2C) Formulas used for calculating doxorubicin toxicity (dox:tox) protection activity. Protection activity is expressed by (Sinf−S0)/AC50 in the twelve-point dose response curve (DRC) corresponding to each compound, wherein both efficacy and potency of compounds were considered. Sinf represents the expected maximal protection. S0 is the baseline. […] In the photo-crosslinking assays, the p70 band intensity was quantified by Image J, and compared the sample of P7C3-S326 alone with that of P7C3-S326 plus competitor. Pearson correlation coefficient (r) and two tailed P value were determined by GraphPad Prism 6 and Spearman Rank Correlation (v1.0.1) software.
FIG. 10. Twelve-point dose response curves (DRC) of all tested compounds in doxorubicin toxicity protection assay. […] Cell viability was determined by Cell Titer Glo assay kit.
Cell survival assay was performed in 96-well plates using CellTiter-Glo Luminescent Cell Viability Assay kit (Promega) that measures cellular ATP content. The CellTiter-Glo reagent was diluted by adding 2 volumes of PBS containing 1% Triton X-100. 50 μl of diluted reagent was directly added to 100 μl of cell culture medium per well. Plates were incubated at room temperature for 10 minutes. Luminescence was recorded by Tecan […]luor Plus reader (Tecan). Cell survival was presented as the percentage of viable cells compared with untreated control, and mean±SD was calculated from duplicates. The dox:tox assay of P7C3 analogs was carried out in the HTS Core (University of Texas Southwestern Medical Center) using the EnVison multimode plate reader (Perkin Elmer).

[6] = system: neurons in living animals; details: neurogenesis, MPTP model, concussive blast injury; cited from earlier work

Row | SMILES | rebound of NAD levels (NAD/NADH-Glo kit) [1] | Binding competition (p70 (NAMPT)) | Neurogenesis # BrdU+ Cells (X10E06)/mm3 Dentate Gyrus [2] | NAMPT activation (Human NAMPT) | protection from doxorubicin-mediated toxicity (dox:tox assay) (U2OS cells) | further results
1 | C#CCN(C)[C@H](C)Cc1ccccc1 [S117, Selegiline, reference compound] | no rebound at all | 1.0 | 8.1 (X10E06)/mm3 |  |  | 
2 | OC(CNc1ccccc1)Cn1c2ccc(Br)cc2c2cc(Br)ccc21 (centres unmarked) [P7C3] |  | 2.6 | 15.0 (X10E06)/mm3 |  |  | enhancement in BrdU-positive hippocampal neurons ([3]; BrdU pulsed one day, then P7C3 for a month): 500%; enhanced level of BrdU-positive neurons ([3]; week-long dose of P7C3): two-fold; toxicity on prolonged administration [4]: not overtly toxic to rodents; half-life, volume of distribution and brain penetration [5]: favorable; body weight relative to vehicle-treated controls (aged Fisher rats): maintained body weight; cognitive decline (aged Fisher rats): abrogation of cognitive decline
3 | COc1cccc(NC[C@@H](F)Cn2c3ccc(Br)cc3c3cc(Br)ccc32)n1 [(+)-S243] |  | 4.2 | 10.0 (X10E06)/mm3 | 1.13 | considerably less active | activity in the three in vivo assays of neuroprotection [6]: far less active
4 | Nc1ccc[n+](CC(O)Cn2c3ccc(Br)cc3c3cc(Br)ccc32)c1 (centres unmarked) [S6] | no rebound at all | 1.4 | 8.4 (X10E06)/mm3 |  |  | 
5 | COc1cccc(NC[C@H](F)Cn2c3ccc(Br)cc3c3cc(Br)ccc32)n1 [(−)-S243, (S)—N-(3-(3,6-Dibromo-9H-carbazol-9-yl)-2-fluoropropyl)-6-methoxypyridin-2-amine] |  | 4.8 | 18.1 (X10E06)/mm3 | 1.33 | protective | activation of recombinant NAMPT enzyme (Human NAMPT): more active in stimulating NAMPT than the racemix mix; activity in the three in vivo assays of neuroprotection [6]: active
6 | C#CCOc1ccc(C(=O)c2ccc(C(=O)NCC(F)Cn3c4ccc(Br)cc4c4cc(Br)ccc43)cc2)cc1 (centres unmarked) [S326, N-(3-(3,6-dibromo-9H-carbazol-9-yl)-2-fluoropropyl)-4-(4-(prop-2-yn-1-yloxy)benzoyl)benzamide] |  |  |  | 1.10 | active | activity in the in vivo neurogenesis assay ([2]; mouse, in vivo): active
7 | COc1cccc(NCC(F)Cn2c3ccc(Br)cc3c3cc(Br)ccc32)n1 (racemic) [S243, N-(3-(3,6-dibromo-9H-carbazol-9-yl)-2-fluoropropyl)-6-methoxypyridin-2-amine] | NAD rebound | 2.2 |  | 1.26 |  | activation of recombinant NAMPT enzyme (Human NAMPT): more active than the (+)P7C3-S243 enantiomer
